For series [1], the system named is MSSA clinical isolates and ATCC strains. As to the kind of experiment: MIC and MBC against MSSA clinical isolates and ATCC strains. It is filed as cell-based, Staphylococcus aureus. Details: MIC: unit not given here. The procedure: (§1) Bioscreen-C instrument was used to detect the MIC and MBC of PNA-CPP derivatives against S. aureus MSSA strains. Different concentrations of PNA-CPP derivatives were prepared in 10 mM of sodium bicarbonate buffer pH-7.4 and added to ˜5.0 Log 10 CFUs in a Honey comb Bioscreen-C plate.
After the growth curve assays, the number of colony forming units (CFU) were counted to determine the MIC and MBC of each PNA-CPP derivative against MSSA.
Minimum inhibitory concentration (MIC) analyses were performed as described in Clinical and Laboratory Standards Institute, Methods for Dilution Antimicrobial Susceptibility Tests for Bacteria that Grow Aerobically, 7th ed.; Approved Standard M7-A7; CLSI: Wayne, Pa., USA, 2006; volume 26, No. 2. Vancomycin and Oxacillin were used as controls. MIC was determined as the lowest concentration of agent that inhibits bacterial growth detected at A420-580 nm.

Series [2] deals with MRSA clinical isolates and ATCC strains. As to the kind of experiment: MIC and MBC against MRSA clinical isolates and ATCC strains. Type of series: cell-based, Staphylococcus aureus. Details: unit not given here. The method, then: Bioscreen-C instrument was used to detect the MIC and MBC of PNA-CPP derivatives against S. aureus MRSA strains. Different concentration of PNA-CPP derivatives were prepared in 10 mM of sodium bicarbonate buffer pH-7.4 and added to ˜5.0 Log 10 CFUs in a Honey comb Bioscreen-C plate.
After the growth curve assays, the number of colony forming units (CFU) were counted to determine the MIC and MBC of each PNA-CPP derivative against MRSA.
Minimum inhibitory concentration (MIC) analyses were performed as described in Clinical and Laboratory Standards Institute, Methods for Dilution Antimicrobial Susceptibility Tests for Bacteria that Grow Aerobically, 7th ed.; Approved Standard M7-A7; CLSI: Wayne, Pa., USA, 2006; volume 26, No. 2. […] MIC was determined as the lowest concentration of agent that inhibits bacterial growth detected at A420-580 nm.

In a further series the test system is S. aureus MSSA strains. The experiment in a line: Bioscreen-C dose response growth curve of MSSA over 24 hours. Type of series: cell-based, Staphylococcus aureus. The following applies: HCl salts, doses from 100 μg downwards, 10 mM sodium bicarbonate buffer pH-7.4, OD 420-580 nm. The procedure:
as §1
Compound I-V were assayed against MSSA. FIG. 12-16 show a dose response growth curve of MSSA in presence of increasing concentrations of Compound I-HCl (FIG. 12), Compound II-HCl (FIG. 13), Compound III-HCl (FIG. 14), Compound IV-HCl (FIG. 15), and Compound V-HCl (FIG. 16), determined in a Bioscreen-C spectrophotometer.

Another series concerns MSSA. The experiment in a line: In vitro assay of emergence of resistance, MSSA, 8 days. It is filed as cell-based, S. aureus. To be noted: 6.25 μg (twice MBC) in one ml Mueller Hinton broth, 37° C., through Day 8. The method, then: (§2) To determine the development of resistance in MRSA and MSSA strains against Compound I-HCl and Compound IV-HCl, an in vitro assay was performed. Twice the amount of MBC of Compound I-HCl (6.25 μg) and Compound IV-HCl (6.25 μg) were mixed with ˜5.0 log 10 CFUs in one ml of Mueller Hinton broth and incubated for 8 days at 37° C. Eight tubes of culture were used for each drug and bacterial strains. At 24 hours of interval, culture tubes were centrifuged and spent media were replaced with fresh media in presence of Compound I-HCl and Compound IV-HCl and further incubated to observe the growth of S. aureus strains. At 24 hours interval, one set of culture tube exposed to drugs were selected and a fraction of the culture used to plate on agar plates to observe the reduction of CFU counts as compared to untreated control. The rest of the culture samples were allowed to grow without any drug for additional 24 hours to observe the growth of S. aureus strains. One set of culture tubes without drug was used as the positive control.
The assays above were also performed using MSSA strains and Compounds I and IV.

The subject of another series is MRSA. As to the kind of experiment: In vitro assay of emergence of resistance, MRSA, 8 days. It is filed as cell-based, S. aureus. To be noted: 6.25 μg (twice MBC) in one ml Mueller Hinton broth, 37° C., through Day 8. The procedure: as §2
The nature of series [3]: Single ascending intravenous dose tolerability (MTD) in mice. Type of series: in vivo. To be noted: 10 mg/kg single intravenous bolus dose. The method, then:
Single ascending intravenous (IV) dose study was performed to determine tolerability of the drug in mice.
Initially, Compound I-HCl and Compound IV-HCl were administered with a 10 mg/kg intravenous bolus dose using a 10 mL/kg dose volume (0.2 mL) and observed the effects before proceeding to the next higher dose. […] However, higher concentration (>15 mg/kg) had shown adverse effect and death in mice within 30 mins of administration of the drug.

For series [4], the system named is S. aureus (ATCC BAA-1556). As to the kind of experiment: Murine thigh infection model. Type of series: in vivo. To be noted: neutropenic CD-1 mice; 25 mg/kg, 0.2 ml SC, +1 hr; 24 hrs. The method, then:
Female 5-6 week old CD-1 (18-22 gm) were used in this study. Mice were quarantined for 48 hours before use and housed in groups of 5 with free access to food and water during the study.
The animals were made neutropenic by administration of cyclophosphamide on Days −4 and −1. On Days −4 150 mg/kg of cyclohsphamide administered by intraperitoneal route and 100 mg/kg was administered on Days −1. Days listed are referenced from the date of infection (study day-Day 0).
On Day 0, animals were inoculated intramuscularly (0.1 ml/thigh) with ˜1×10^5 CFU/mouse of S. aureus (ATCC BAA-1556) into right thigh. […] Group-3 of mice were administered with vancomycin at 25 mg/kg via subcutaneous route. Group-4 of mice administered with buffer and group-5 used as the inoculation control.
Mice were euthanized by CO2 inhalation and thighs were removed, and placed in 2 ml of sterile PBS, homogenized, serially diluted and plated to determine the CFU counts. Plates were incubated 18-24 hours and CFUs were counted.
Colony were counted and the number of colonies is converted to CFU/thigh by multiplying the number of colonies by the volume of the thigh homogenate spotted and the dilution at which the colonies were counted (5-50 colonies/spot). All count data were transformed into logo CFU/thigh for calculation of means and standard deviations.

Setting [5] is: MSSA table, isolate MRSA#16 [sic].
Setting [6] is: MSSA table, isolate MRSA#25 [sic].
The mark [7] stands for this setting: MSSA table, isolate MRSA#27 [sic].
[8] abbreviates: MSSA table, isolate MRSA#34 [sic].
[9] abbreviates: MSSA table, isolate MRSA#38 [sic].
Where [10] appears, read: MSSA table, isolate MRSA#57 [sic].
Setting [11] is: MSSA table, isolate MRSA#60 [sic].
Setting [12] is: MSSA table, isolate printed MRSA#49.
Setting [13] is: MSSA table, isolate printed MRSA#61.

Results on five compounds are retold here after patent US20200325178A1, “PEPTIDE NUCLEIC ACID MOLECULES FOR TREATMENT OF GRAM POSITIVE BACTERIAL INFECTION” (priority 2017, published 2020).

Regarding “Compound II: PNA-CPP conjugate: PNA SEQ ID NO: 51, AEA linker, CPP BXRXRRXRRXRRXR; FIG. 2 (CGTCATACGCGGTCC; all peptide nucleic acid (PNA); PNA conjugated to cell-penetrating peptide BXRXRRXRRXRRXR via AEA linker, end not given here)”, the MBC is 3.25 ∞g in series [1] (setting [5]); 3.25/3.25 ∞g in series [1] (setting [6]); 1.56 ∞g in series [1] (setting [7]); 3.25/3.25 ∞g in series [1] (setting [8]); 3.25/3.25 ∞g in series [1] (setting [9]); 3.25/3.25 ∞g in series [1] (MSSA table, isolate MRSA#55). Further, the MBC in series [1] (setting [10]) is listed as 3.25 ∞g; in series [1] (setting [11]) it was 1.56 ∞g; in series [1] (setting [12]), 3.25/3.25 ∞g; in series [1] (setting [13]), 1.56 ∞g; in series [1] (strain BAA 1721), 1.56 ∞g; in series [2] (isolate MRSA#1), 3.25. The MBC in series [2] (isolate MRSA#3) turned out to be 3.25; in series [2] (isolate MRSA#6), 3.25; in series [2] (isolate MRSA#15) it was 3.25; in series [2] (isolate MRSA#28), 3.25; in series [2] (isolate MRSA#31) it was 3.25; in series [2] (isolate MRSA#37) it was 1.56. For the same compound, the MBC in series [2] (isolate MRSA#39) is 3.25; in series [2] (isolate MRSA#42), 1.56; in series [2] (isolate MRSA#43), 1.56; in series [2] (strain USA 300), 1.56. For the same compound, the MIC in series [1] (setting [5]) is 1.56 ∞g; in series [1] (setting [6]), 3.25/3.25 ∞g; in series [1] (setting [7]), 0.78 ∞g; in series [1] (setting [8]), 3.25/3.25 ∞g; in series [1] (setting [9]), 3.25/3.25 ∞g; in series [1] (MSSA table, isolate MRSA#55) it was 3.25/3.25 ∞g. For the same compound, the MIC is 1.56 ∞g in series [1] (setting [10]); 0.78 ∞g in series [1] (setting [11]); 3.25/3.25 ∞g in series [1] (setting [12]); 0.78 ∞g in series [1] (setting [13]); 0.78 ∞g in series [1] (strain BAA 1721); 1.56 in series [2] (isolate MRSA#1). Also, the MIC in series [2] (isolate MRSA#3) is listed as 1.56; in series [2] (isolate MRSA#6), 1.56; in series [2] (isolate MRSA#15), 1.56; in series [2] (isolate MRSA#28), 1.56; in series [2] (isolate MRSA#31), 1.56; in series [2] (isolate MRSA#37), 0.78. In addition, the MIC in series [2] (isolate MRSA#39) is 1.56; in series [2] (isolate MRSA#42), 0.78; in series [2] (isolate MRSA#43), 0.78; in series [2] (strain USA 300), 0.78. The “lowest dose at which no MSSA growth was observed (growth curve)” value in the series on S. aureus MSSA strains was 6.25 µg.
As to `Cc1onc(-c2ccccc2)c1C(=O)N[C@@H]1C(=O)N2[C@@H]1SC(C)(C)[C@@H]2C(=O)O` [Oxacillin, reference compound], the MIC in series [1] (setting [5]) is 2 ∞g; in series [1] (setting [6]), 2 ∞g; in series [1] (setting [7]), 2 ∞g; in series [1] (setting [8]), 2 ∞g; in series [1] (setting [9]) it was 2 ∞g; in series [1] (MSSA table, isolate MRSA#55), 2 ∞g. Moreover, the MIC is given as 4 ∞g in series [1] (setting [10]); 2 ∞g in series [1] (setting [11]); 2 ∞g in series [1] (setting [12]); 2 ∞g in series [1] (setting [13]); <2 ∞g in series [1] (strain BAA 1721).
“Compound IV: PNA-CPP conjugate: PNA SEQ ID NO: 51, AEEA linker, homo-arginine CPP BXhRXhRhRXhRhRXhRhRXhR; FIG. 4 (CGTCATACGCGGTCC; all peptide nucleic acid (PNA); homo-arginine cell-penetrating peptide attached via AEEA linker, further chemistry not fully specified)”: the “MSSA CFU counts and emergence of resistant strains” value in the series on MSSA is listed as “reduced MSSA CFUs without emergence of resistant strains”. Also, the “MRSA CFU counts and emergence of resistant strains” value in the series on MRSA is on record as “reduced MRSA CFUs without emergence of resistant strains”. The tolerability in mice entry in series [3] is “well tolerated”. Further, the “lowest dose at which no MSSA growth was observed (growth curve)” value in the series with S. aureus MSSA strains came out at 6.25 µg.
Take “Compound V: PNA-CPP conjugate: PNA SEQ ID NO: 51, AEEA linker, D-arginine CPP BXdRXdRdRXdRdRXdRdRXdR; FIG. 5 (CGTCATACGCGGTCC; all peptide nucleic acid (PNA); PNA conjugated to D-arginine cell-penetrating peptide via AEEA linker, end not given here, further chemistry not fully specified)”: the “lowest dose at which no MSSA growth was observed (growth curve)” value in the series on S. aureus MSSA strains stood at 25 µg.
With `CN[C@H](CC(C)C)C(=O)N[C@H]1C(=O)N[C@@H](CC(N)=O)C(=O)N[C@H]2C(=O)N[C@H]3C(=O)N[C@H](C(=O)N[C@H](C(=O)O)c4cc(O)cc(O)c4-c4cc3ccc4O)[C@H](O)c3ccc(c(Cl)c3)Oc3cc2cc(c3O[C@@H]2O[C@H](CO)[C@@H](O)[C@H](O)[C@H]2O[C@H]2C[C@](C)(N)[C@H](O)[C@H](C)O2)Oc2ccc(cc2Cl)[C@H]1O` [Vancomycin, reference compound], the MIC in series [1] (setting [5]) is reported as 5 ∞g; in series [1] (setting [6]), 10 ∞g; in series [1] (setting [7]), 10 ∞g; in series [1] (setting [8]), 5 ∞g; in series [1] (setting [9]), 10 ∞g; in series [1] (MSSA table, isolate MRSA#55) it was 10 ∞g. The MIC in series [1] (setting [10]) was 20 ∞g; in series [1] (setting [11]), 10 ∞g; in series [1] (setting [12]), 10 ∞g; in series [1] (setting [13]), 5 ∞g; in series [1] (strain BAA 1721), 10 ∞g. Besides, the “Mean Log 10 CFU/Thigh” value in series [4] is given as 4.39 Log 10 CFU/Thigh. The “Mean Log 10 Change vs. 1 hr” value in series [4] is listed as −1.23 Log 10. For the same compound, in series [4], the “Mean Log 10 Change vs. 24 hr (vehicle)” value was −4.14 Log 10.
